According to patent publication US20150105252A1, “SUBSTITUTED PYRAZOLES AS HERBICIDES” (E I DU PONT DE NEMOURS AND COMPANY, priority 2013, published 2015):

Legend:
barnyardgrass [1] = assay: Test A preemergence; type: in vivo, Echinochloa crus-galli; settings: preemergence; for Barnyardgrass plant response rating (0 to 100 scale, 0 is no effect, 100 is complete control): visual injury approx. 10 days after treatment
How it was run: (§1)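 Both timings tested concurrently in loam/sand soil: preemergence by directed soil spray, postemergence on plants of 2–10 cm at the one- to two-leaf stage. Greenhouse holding period was approximately 10 days before visual injury assessment (0–100, 0 = no effect).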

velvetleaf [2] = assay: Test C preemergence; type: in vivo, Abutilon theophrasti
How it was run: (§2)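 In this greenhouse assay, seeded soil (loam plus sand) or emerged seedlings in peat-vermiculite medium were treated with formulated compound. Roughly two weeks later (13–15 days), each species was scored visually relative to controls, from 0 for no effect to 100 for complete control.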

johnsongrass = assay: Test C preemergence; type: in vivo, Sorghum halepense
How it was run: as §2

crabgrass, large [3] = assay: Test A postemergence; type: in vivo, Digitaria sanguinalis
How it was run: as §1

wheat [4] = assay: Test C preemergence; type: in vivo, Triticum aestivum
How it was run: as §2

blackgrass = assay: Test C preemergence; type: in vivo, Alopecurus myosuroides; settings: preemergence; for Plant response rating, Blackgrass: 125 g ai/ha, scale 0 to 100, 0 = no effect, 100 = complete control
How it was run: as §2

oilseed rape = assay: Test C preemergence; type: in vivo, Brassica napus
How it was run: as §2

corn [5] = assay: Test A preemergence; type: in vivo, Zea mays; settings: preemergence; for Corn plant response rating (0 to 100 scale): visual injury approx. 10 days after treatment
How it was run: as §1

ragweed = assay: Test C preemergence; type: in vivo, Ambrosia elation
How it was run: as §2

barnyardgrass [6] = assay: Test C preemergence; type: in vivo, Echinochloa crus-galli; settings: preemergence; for Plant response rating, Barnyardgrass: 125 g ai/ha, scale 0 to 100, 0 = no effect, 100 = complete control
How it was run: as §2

foxtail, giant = assay: Test C preemergence; type: in vivo, Setaria faberii
How it was run: as §2

wheat [7] = assay: Test A preemergence; type: in vivo, Triticum aestivum; settings: preemergence; for Wheat plant response rating (0 to 100 scale): visual injury approx. 10 days after treatment
How it was run: as §1

velvetleaf [8] = assay: Test A preemergence; type: in vivo, Abutilon theophrasti; settings: preemergence; for Velvetleaf plant response rating (0 to 100 scale): visual injury approx. 10 days after treatment
How it was run: as §1

crabgrass, large [9] = assay: Test A preemergence; type: in vivo, Digitaria sanguinalis; settings: preemergence; for Crabgrass, Large plant response rating (0 to 100 scale): visual injury approx. 10 days after treatment
How it was run: as §1

wheat [10] = assay: Test A postemergence; type: in vivo, Triticum aestivum
How it was run: as §1

corn [11] = assay: Test C preemergence; type: in vivo, Zea mays
How it was run: as §2

pigweed = assay: Test A postemergence; type: in vivo, Amaranthus retroflexus
How it was run: as §1

[12] = 125 g ai/ha, visual injury, 0 to 100 scale, approx. 10 days
[13] = 500 g ai/ha, visual injury after approx. 10 days, 0 to 100 scale (0 no effect, 100 complete control)
[14] = preemergence, 31 g ai/ha, visual rating, scale 0 to 100 (0 no effect, 100 complete control), 13 to 15 days
[15] = preemergence, 62 g ai/ha, scale 0 to 100 (0 no effect, 100 complete control), 13 to 15 days
[16] = preemergence, 125 g ai/ha, 13 to 15 days, scale 0 to 100, 0 = no effect, 100 = complete control
[17] = preemergence, 250 g ai/ha, scale 0 to 100, 0 is no effect, 100 is complete control
[18] = Postemergence, 500 g ai/ha, 0 to 100 scale (0 no effect, 100 complete control)
[19] = postemergence, 125 g ai/ha, about 10 days, visual rating on 0 to 100 scale (0 no effect, 100 complete control)
[20] = 31 g ai/ha, visual rating, scale 0 to 100 (0 no effect, 100 complete control), 13 to 15 days
[21] = 62 g ai/ha, scale 0 to 100 (0 no effect, 100 complete control), 13 to 15 days
[22] = 250 g ai/ha, scale 0 to 100, 0 is no effect, 100 is complete control
[23] = Preemergence, rate head not shown (block before 16 g ai/ha), scale 0 to 100
[24] = Postemergence, 125 g ai/ha, 0 to 100 scale, 0 no effect, 100 complete control

CCc1cc(C(=O)NC(C)C)nn1Cc1ccnc(C(F)(F)F)c1 [Compound 139]
75: Ragweed plant response rating (ragweed; [15])
50: Oilseed Rape plant response rating (oilseed rape; [14]) | Wheat plant response rating (wheat [7]; [12]) | Wheat plant response rating (wheat [10]; [19])
85: Plant response rating, Johnsongrass (johnsongrass; [16]) | Wheat plant response rating (wheat [4]; [15]) | Plant response rating, Wheat (wheat [4]; [16]) | Blackgrass plant response rating (blackgrass; [20]) | Plant response rating, Corn (corn [11]; [16])
30: Wheat plant response rating (wheat [4]; [14]) | Corn plant response rating (corn [5]; [12]) | Velvetleaf plant response rating (velvetleaf [8]; [12]) | Corn plant response rating (corn [11]; [15])
25: Corn plant response rating (corn [11]; [14])
70: Johnsongrass plant response rating (johnsongrass; [15])
100: Barnyardgrass plant response rating (barnyardgrass [1]; [13]) | Velvetleaf plant response rating (velvetleaf [2]; [17]) | Oilseed Rape plant response rating (oilseed rape; [15]) | Plant response rating, Oilseed Rape (oilseed rape; [16]) | Oilseed Rape plant response rating (oilseed rape; [17]) | Plant response rating, Barnyardgrass (barnyardgrass [6]; 13 to 15 days) | Barnyardgrass plant response rating (barnyardgrass [6]; [22]) | Foxtail, Giant plant response rating (foxtail, giant; [15]) | Plant response rating, Foxtail, Giant (foxtail, giant; [16]) | Foxtail, Giant plant response rating (foxtail, giant; [17]) | Wheat plant response rating (wheat [7]; [13]) | Velvetleaf plant response rating (velvetleaf [8]; [13]) | Crabgrass, Large plant response rating (crabgrass, large [9]; [12]) | Crabgrass, Large plant response rating (crabgrass, large [9]; [13]) | Pigweed plant response rating (pigweed; [18])
0: Velvetleaf plant response rating (velvetleaf [2]; [14])
10: Velvetleaf plant response rating (velvetleaf [2]; [15]) | Johnsongrass plant response rating (johnsongrass; [14])
90: Barnyardgrass plant response rating (barnyardgrass [1]; [12]) | Crabgrass, Large plant response rating (crabgrass, large [3]; [18]) | Crabgrass, Large plant response rating (crabgrass, large [3]; [19]) | Wheat plant response rating (wheat [4]; [17]) | Blackgrass plant response rating (blackgrass; [21]) | Plant response rating, Blackgrass (blackgrass; 13 to 15 days) | Blackgrass plant response rating (blackgrass; [22]) | Corn plant response rating (corn [5]; [13]) | Plant response rating, Ragweed (ragweed; [16]) | Foxtail, Giant plant response rating (foxtail, giant; [14]) | Wheat plant response rating (wheat [10]; [18]) | Pigweed plant response rating (pigweed; [19])
40: Barnyardgrass plant response rating (barnyardgrass [6]; 31 g ai/ha, scale 0 to 100 (0 no effect, 100 complete control), 13 to 15 days)
98: Johnsongrass plant response rating (johnsongrass; [17]) | Barnyardgrass plant response rating (barnyardgrass [6]; [21])
15: Ragweed plant response rating (ragweed; [14])
80: Corn plant response rating (corn [11]; [17])
95: Plant response rating, Velvetleaf (velvetleaf [2]; [16]) | Ragweed plant response rating (ragweed; [17])

CCc1cc(C(=O)NC2CC2)nn1Cc1cc(C(F)(F)C(F)(F)F)nn1C [Compound 226]
10: Plant response rating, Johnsongrass (johnsongrass; [23]) | Wheat plant response rating (wheat [4]; [17]) | Barnyardgrass plant response rating (barnyardgrass [6]; [20]) | Plant response rating, Corn (corn [11]; Preemergence, rate head not shown (block before 16 g ai/ha), scale 0 to 100, 100 is complete control)
95: Oilseed Rape plant response rating (oilseed rape; [17]) | Plant response rating, Ragweed (ragweed; [16]) | Plant response rating, Barnyardgrass (barnyardgrass [6]; 13 to 15 days)
55: Johnsongrass plant response rating (johnsongrass; [15])
25: Plant response rating, Velvetleaf (velvetleaf [2]; [23])
65: Barnyardgrass plant response rating (barnyardgrass [6]; [21])
100: Barnyardgrass plant response rating (barnyardgrass [1]; [13]) | Plant response rating, Velvetleaf (velvetleaf [2]; [16]) | Velvetleaf plant response rating (velvetleaf [2]; [17]) | Plant response rating, Johnsongrass (johnsongrass; [16]) | Plant response rating, Oilseed Rape (oilseed rape; [16]) | Ragweed plant response rating (ragweed; [15]) | Barnyardgrass plant response rating (barnyardgrass [6]; [22]) | Plant response rating, Foxtail, Giant (foxtail, giant; [16]) | Foxtail, Giant plant response rating (foxtail, giant; [17]) | Crabgrass, Large plant response rating (0 to 100 scale) (crabgrass, large [9]; 125 g ai/ha) | Crabgrass, Large plant response rating (crabgrass, large [9]; [13]) | Pigweed plant response rating (pigweed; [24]) | Pigweed plant response rating (pigweed; [18])
30: Plant response rating, Oilseed Rape (oilseed rape; [23]) | Corn plant response rating (0 to 100 scale) (corn [5]; 125 g ai/ha) | Plant response rating, Corn (corn [11]; [16])
70: Crabgrass, Large plant response rating (crabgrass, large [3]; [24]) | Plant response rating, Blackgrass (blackgrass; 13 to 15 days) | Corn plant response rating (corn [11]; [17])
80: Barnyardgrass plant response rating (0 to 100 scale, 0 is no effect, 100 is complete control) (barnyardgrass [1]; 125 g ai/ha) | Velvetleaf plant response rating (velvetleaf [2]; [15]) | Plant response rating, Foxtail, Giant (foxtail, giant; [23])
50: Corn plant response rating (corn [5]; [13])
98: Ragweed plant response rating (ragweed; [17])
0: Wheat plant response rating (wheat [4]; [15]) | Plant response rating, Wheat (wheat [4]; [16])
15: Plant response rating, Wheat (wheat [4]; [23]) | Corn plant response rating (corn [11]; [15])
60: Blackgrass plant response rating (blackgrass; [20]) | Velvetleaf plant response rating (0 to 100 scale) (velvetleaf [8]; 125 g ai/ha) | Wheat plant response rating (wheat [10]; [24])
85: Johnsongrass plant response rating (johnsongrass; [17]) | Blackgrass plant response rating (blackgrass; [21]) | Oilseed Rape plant response rating (oilseed rape; [15])
40: Wheat plant response rating (0 to 100 scale) (wheat [7]; 125 g ai/ha)
90: Crabgrass, Large plant response rating (crabgrass, large [3]; [18]) | Blackgrass plant response rating (blackgrass; [22]) | Plant response rating, Ragweed (ragweed; [23]) | Foxtail, Giant plant response rating (foxtail, giant; [15]) | Wheat plant response rating (wheat [10]; [18])

Cc1cc(C(=O)NC(C)C)nn1Cc1ccnc(C(F)(F)F)c1 [Compound 197]
85: Johnsongrass plant response rating (johnsongrass; [17]) | Blackgrass plant response rating (blackgrass; [21]) | Ragweed plant response rating (ragweed; [15])
5: Plant response rating, Wheat (wheat [4]; [16]) | Corn plant response rating (corn [11]; [14]) | Corn plant response rating (corn [11]; [15])
0: Wheat plant response rating (wheat [4]; [14]) | Wheat plant response rating (wheat [4]; [15]) | Blackgrass plant response rating (blackgrass; [20]) | Corn plant response rating (0 to 100 scale) (corn [5]; 125 g ai/ha) | Wheat plant response rating (0 to 100 scale) (wheat [7]; 125 g ai/ha) | Wheat plant response rating (wheat [10]; [24])
70: Velvetleaf plant response rating (0 to 100 scale) (velvetleaf [8]; 125 g ai/ha)
80: Plant response rating, Johnsongrass (johnsongrass; [16]) | Crabgrass, Large plant response rating (crabgrass, large [3]; [19]) | Wheat plant response rating (wheat [4]; [17]) | Oilseed Rape plant response rating (oilseed rape; [14])
65: Plant response rating, Velvetleaf (velvetleaf [2]; [16]) | Barnyardgrass plant response rating (barnyardgrass [6]; [20]) | Foxtail, Giant plant response rating (foxtail, giant; [14])
45: Plant response rating, Corn (corn [11]; [16])
60: Ragweed plant response rating (ragweed; [14]) | Wheat plant response rating (wheat [10]; [18])
10: Johnsongrass plant response rating (johnsongrass; [14])
100: Barnyardgrass plant response rating (barnyardgrass [1]; [13]) | Velvetleaf plant response rating (velvetleaf [2]; [17]) | Crabgrass, Large plant response rating (crabgrass, large [3]; [18]) | Oilseed Rape plant response rating (oilseed rape; [17]) | Plant response rating, Barnyardgrass (barnyardgrass [6]; 13 to 15 days) | Barnyardgrass plant response rating (barnyardgrass [6]; [22]) | Plant response rating, Foxtail, Giant (foxtail, giant; [16]) | Foxtail, Giant plant response rating (foxtail, giant; [17]) | Velvetleaf plant response rating (velvetleaf [8]; [13]) | Crabgrass, Large plant response rating (0 to 100 scale) (crabgrass, large [9]; 125 g ai/ha) | Crabgrass, Large plant response rating (crabgrass, large [9]; [13]) | Pigweed plant response rating (pigweed; [24]) | Pigweed plant response rating (pigweed; [18])
90: Barnyardgrass plant response rating (0 to 100 scale, 0 is no effect, 100 is complete control) (barnyardgrass [1]; 125 g ai/ha) | Velvetleaf plant response rating (velvetleaf [2]; [15]) | Plant response rating, Blackgrass (blackgrass; 13 to 15 days) | Blackgrass plant response rating (blackgrass; [22]) | Corn plant response rating (corn [5]; [13])
40: Johnsongrass plant response rating (johnsongrass; [15])
25: Velvetleaf plant response rating (velvetleaf [2]; [14])
95: Oilseed Rape plant response rating (oilseed rape; [15]) | Plant response rating, Oilseed Rape (oilseed rape; [16]) | Plant response rating, Ragweed (ragweed; [16]) | Corn plant response rating (corn [11]; [17])
50: Wheat plant response rating (wheat [7]; [13])
98: Ragweed plant response rating (ragweed; [17]) | Barnyardgrass plant response rating (barnyardgrass [6]; [21]) | Foxtail, Giant plant response rating (foxtail, giant; [15])
